System: mugineic acid-Fe complex transporter HvYS1
Test: Iron uptake activity: electrophysiological measurement of intracellular uptake of mugineic acid-Fe complex in oocytes expressing the transporter
Format: cell-based, barley
Conditions: substrate-Fe complex final concentration 50 μM; African clawed frog oocytes expressing HvYS1; natural mugineic acid set to 100%; FIG. 1
Text: Concerning the S isomer (natural form) and R isomer of 2′-OH obtained in Example 12, 2′-deoxy isomer obtained in Example 9, and mugineic acid purified from barley by the method described in “Takagi, S. et al., Journal of Plant Nutrition, 1984, 7th volume, p 469-477”, it was verified that the intracellular uptake of iron complex thereof actually takes place via the mugineic acid-Fe complex transporter. According to the method described in “Murata, Y. et al., Plant Journal (Plant J), 2006, 46th volume, p. 563-572.”, the gene HvYS1 gene which codes the mugineic acid-Fe complex transporter of barley (Plant J. 2006, vol. 46, 563-572) was introduced into the oocytes of the African clawed frog. […] The intracellular uptake of mugineic acid-Fe complex was measured using Oocyte clamp OC-725C (Warner Instrument) by the detection of electrochemical signal. More specifically, the oocyte which expressed the mugineic acid-Fe complex transporter HvYS1 was set to the chamber filled with ND-96 solution, 10 μl of a 5 mM substrate-Fe complex solution (final concentration 50 μM) was sprinkled on the oocyte and the electrical physiological activity was measured. The oocyte was plugged with 2 microelectrodes filled with 3M KCl, and with the mode in which the electric potential of the experimental tank was fixed at 0 V, the current value changing at a fixed electrical potential, […], was measured. […]

SMILES: O=C(O)[C@@H](NCC[C@H](O)C(=O)O)[C@@H](O)CN1CC[C@H]1C(=O)O [natural mugineic acid, mugineic acid]
- size of the current value (electrical physiological activity), relative value to natural mugineic acid: 100%

From patent US20100256395A1, “EFFICIENT METHOD FOR PRODUCING MUGINEIC ACIDS” (SUNTORY HOLDINGS LIMITED, priority 2006, published 2010)
